Inconclusive results and toxic doses are left out. Rule for the calls: active = survival T/C of 150% or more; inactive = T/C below 125% in these data.
Test system: BDF1 mice, P388 leukemia ip, median survival T/C
Test: NCI In Vivo Anticancer Drug Screen. Data for tumor model P388 Leukemia (intraperitoneal) in B6D2F1 (BDF1) mice
Details: endpoint: median survival time, higher = longer survival
Method in brief: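 Vehicle-dosed animals serve as the reference; survival of compound-dosed, tumour-implanted mice is divided by it.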

[1] = dose: 50.0 mg/kg/injection, schedule: Q04DX003 (ip), vehicle: saline with Tween-80
[2] = dose: 100.0 mg/kg/injection, schedule: Q04DX003 (ip), vehicle: saline with Tween-80
[3] = dose: 200.0 mg/kg/injection, schedule: Q04DX003 (ip), vehicle: saline with Tween-80
[4] = dose: 400.0 mg/kg/injection, schedule: Q04DX003 (ip), vehicle: saline with Tween-80
[5] = dose: 25.0 mg/kg/injection, schedule: Q01DX009 (ip), vehicle: saline with Tween-80
[6] = dose: 50.0 mg/kg/injection, schedule: Q01DX009 (ip), vehicle: saline with Tween-80
[7] = dose: 100.0 mg/kg/injection, schedule: Q01DX009 (ip), vehicle: saline with Tween-80
[8] = dose: 200.0 mg/kg/injection, schedule: Q01DX009 (ip), vehicle: saline with Tween-80
[9] = dose: 400.0 mg/kg/injection, schedule: Q01DX009 (ip), vehicle: saline with Tween-80
[10] = dose: 25.0 mg/kg/injection, schedule: Q04DX003 (ip), vehicle: water
[11] = dose: 50.0 mg/kg/injection, schedule: Q04DX003 (ip), vehicle: water
[12] = dose: 100.0 mg/kg/injection, schedule: Q04DX003 (ip), vehicle: water
[13] = dose: 200.0 mg/kg/injection, schedule: Q04DX003 (ip), vehicle: water
[14] = dose: 400.0 mg/kg/injection, schedule: Q04DX003 (ip), vehicle: water

Measured: T/C

CCOC(=O)c1c(C(=O)OCC)c(C)n(NC(=S)NC)c1C
inactive: dose: 75.0 mg/kg/injection, schedule: Q01DX009 (ip), vehicle: saline with Tween-80 103 % of control | dose: 150.0 mg/kg/injection, schedule: Q01DX009 (ip), vehicle: saline with Tween-80 89 % of control | dose: 300.0 mg/kg/injection, schedule: Q01DX009 (ip), vehicle: saline with Tween-80 93 % of control

Cc1cc(-c2ccccc2)nnc1NCCN1CCOCC1
inactive: dose: 6.25 mg/kg/injection, schedule: Q01DX009 (ip), vehicle: saline 106 % of control | dose: 12.5 mg/kg/injection, schedule: Q01DX009 (ip), vehicle: saline 90 % of control | dose: 25.0 mg/kg/injection, schedule: Q01DX009 (ip), vehicle: saline 88 % of control

C=C(Cl)CSCC
inactive: dose: 6.25 mg/kg/injection, schedule: Q04DX003 (ip), vehicle: alcohol 100 % of control | dose: 12.5 mg/kg/injection, schedule: Q01DX009 (ip), vehicle: acetone 118 % of control | dose: 12.5 mg/kg/injection, schedule: Q04DX003 (ip), vehicle: alcohol 105 % of control | dose: 25.0 mg/kg/injection, schedule: Q01DX009 (ip), vehicle: acetone 113 % of control | dose: 25.0 mg/kg/injection, schedule: Q04DX003 (ip), vehicle: alcohol 100 % of control | dose: 45.0 mg/kg/injection, schedule: Q01DX001 (ip), vehicle: saline 109 % of control | dose: 90.0 mg/kg/injection, schedule: Q01DX001 (ip), vehicle: saline 109 % of control | dose: 120.0 mg/kg/injection, schedule: Q04DX003 (ip), vehicle: saline 109 % of control | dose: 180.0 mg/kg/injection, schedule: Q04DX003 (ip), vehicle: saline 95 % of control | dose: 270.0 mg/kg/injection, schedule: Q04DX003 (ip), vehicle: saline 86 % of control

OCC(O)C(O)C(O)C(O)c1nc2ccccc2[nH]1 (stereo not drawn)
inactive: [1] 119 % of control | [2] 97 % of control | [3] 95 % of control | [4] 103 % of control

COc1cccc2c1C(=O)c1c(O)c3c(c(O)c1C2=O)CC(O)(C(=O)CO)CC3OC1CC(N)C(O)C(C)O1 (stereo not drawn) (tested in a mixture with another compound)
inactive: dose: 1.56 mg/kg/injection, schedule: Q01DX009 (ip), vehicle: other 118 % of control | dose: 3.13 mg/kg/injection, schedule: Q01DX009 (ip), vehicle: other 106 % of control | dose: 6.25 mg/kg/injection, schedule: Q01DX009 (ip), vehicle: other 93 % of control | dose: 12.5 mg/kg/injection, schedule: Q01DX009 (ip), vehicle: other 108 % of control

O=C1c2c(O)ccc([N+](=O)[O-])c2C(=O)c2c([N+](=O)[O-])ccc(O)c21
inactive: dose: 100.0 mg/kg/injection, schedule: Q04DX003 (ip), vehicle: Klucel (hydroxypropylcellulose) (HPC) 118 % of control | dose: 200.0 mg/kg/injection, schedule: Q04DX003 (ip), vehicle: Klucel (hydroxypropylcellulose) (HPC) 122 % of control | dose: 400.0 mg/kg/injection, schedule: Q04DX003 (ip), vehicle: Klucel (hydroxypropylcellulose) (HPC) 113 % of control

CCOC(=O)c1c(NC(=O)CCC(=O)Nc2sc(C)c(C)c2C(=O)OCC)sc(C)c1C
inactive: [5] 109 % of control | [6] 90 % of control | dose: 50.0 mg/kg/injection, schedule: Q04DX003 (ip), vehicle: saline 87 % of control | [7] 90 % of control | dose: 400.0 mg/kg/injection, schedule: Q04DX003 (ip), vehicle: saline 91 % of control

O=C1c2ccc(Br)cc2-c2cc(Br)ccc21
inactive: [7] 99 % of control | [8] 106 % of control | [9] 101 % of control

Clc1cccc(NC2=NCCN=C(Nc3cccc(Cl)c3)SS2)c1
inactive: [6] 111 % of control | [7] 102 % of control | [8] 111 % of control

CCNC(C)(C)C(SS)c1ccc(Br)cc1 (stereo not drawn)
inactive: dose: 6.25 mg/kg/injection, schedule: Q01DX009 (ip), vehicle: water 100 % of control | dose: 12.5 mg/kg/injection, schedule: Q01DX009 (ip), vehicle: water 92 % of control | dose: 25.0 mg/kg/injection, schedule: Q01DX009 (ip), vehicle: water 96 % of control | [10] 102 % of control | dose: 50.0 mg/kg/injection, schedule: Q01DX009 (ip), vehicle: water 101 % of control | [11] 100 % of control | dose: 100.0 mg/kg/injection, schedule: Q01DX009 (ip), vehicle: water 109 % of control | [12] 102 % of control | dose: 200.0 mg/kg/injection, schedule: Q01DX009 (ip), vehicle: water 101 % of control | [13] 106 % of control | [14] 90 % of control

CCOC(=O)C1(CCOC)CCCCC1=O (stereo not drawn)
inactive: [6] 106 % of control | [7] 117 % of control | [8] 115 % of control

O=C(NC(CO)Cc1ccccc1)c1ccccc1 (stereo not drawn)
inactive: dose: 9.0 mg/kg/injection, schedule: Q01DX009 (ip), vehicle: Klucel (hydroxypropylcellulose) (HPC) 102 % of control | dose: 18.0 mg/kg/injection, schedule: Q01DX009 (ip), vehicle: Klucel (hydroxypropylcellulose) (HPC) 95 % of control | dose: 36.0 mg/kg/injection, schedule: Q01DX009 (ip), vehicle: Klucel (hydroxypropylcellulose) (HPC) 99 % of control | dose: 72.0 mg/kg/injection, schedule: Q01DX009 (ip), vehicle: Klucel (hydroxypropylcellulose) (HPC) 99 % of control

COc1cc2c(cc1OC)C1CCN3C(=O)CCC3N1CC2 (stereo not drawn)
inactive: [2] 88 % of control | [8] 92 % of control | [3] 92 % of control | [9] 104 % of control | [4] 96 % of control

Cc1ccc(N=NN(C)C)cc1
inactive: dose: 33.0 mg/kg/injection, schedule: Q01DX009 (ip), vehicle: saline with Tween-80 104 % of control | [6] 108 % of control

Cc1cc(N)c(C)c([N+](=O)[O-])c1
inactive: [6] 100 % of control | [7] 100 % of control | [8] 95 % of control

CN=C(NC)c1ccc(NC(=O)c2ccc(C(=O)Nc3ccc(C(=NC)NC)cc3)cc2)cc1
inactive: dose: 6.25 mg/kg/injection, schedule: Q01DX009 (ip), vehicle: saline with Tween-80 104 % of control | dose: 12.5 mg/kg/injection, schedule: Q01DX009 (ip), vehicle: saline with Tween-80 100 % of control | [5] 86 % of control | dose: 100.0 mg/kg/injection, schedule: Q04DX003 (ip), vehicle: saline 90 % of control | dose: 200.0 mg/kg/injection, schedule: Q04DX003 (ip), vehicle: saline 90 % of control

CC(C)n1cnc2c(=S)nc[nH]c21
inactive: [7] 91 % of control | [2] 100 % of control | [3] 104 % of control | [4] 113 % of control

COC(=O)Nc1cccc(NC(=O)C(=O)O)c1
inactive: [1] 100 % of control | [2] 100 % of control

Cc1cccc(OS(=O)(=O)c2ccccc2[N+](=O)[O-])c1
inactive: dose: 100.0 mg/kg/injection, schedule: Q01DX001 (ip), vehicle: saline sonified 100 % of control | dose: 200.0 mg/kg/injection, schedule: Q01DX001 (ip), vehicle: saline sonified 110 % of control | dose: 400.0 mg/kg/injection, schedule: Q01DX001 (ip), vehicle: saline sonified 100 % of control

COc1ccc2nc(N)n(C(=O)c3ccccc3)c(=O)c2c1
inactive: dose: 100.0 mg/kg/injection, schedule: Q01DX001 (ip), vehicle: saline with Tween-80 101 % of control | dose: 200.0 mg/kg/injection, schedule: Q01DX001 (ip), vehicle: saline with Tween-80 109 % of control | dose: 400.0 mg/kg/injection, schedule: Q01DX001 (ip), vehicle: saline with Tween-80 109 % of control

Cc1n[nH]c(=S)[nH]c1=S
inactive: dose: 25.0 mg/kg/injection, schedule: Q04DX003 (ip), vehicle: saline with Tween-80 109 % of control | [1] 100 % of control | [2] 104 % of control

NC(=O)C(CO)NC(=O)OCc1ccccc1 (stereo not drawn)
inactive: [10] 110 % of control | [11] 103 % of control | [12] 100 % of control | [13] 100 % of control | [14] 103 % of control

OCCN(CCO)c1cc(/C=C/c2ccnc3ccccc23)nc2ccccc12
inactive: [6] 89 % of control | [7] 89 % of control | [8] 91 % of control

N#Cc1cccc(CC(O)(c2ccccc2)c2ccccc2)c1
inactive: [6] 89 % of control | [7] 87 % of control | [8] 95 % of control

CCN1c2ccccc2CC(C#N)(CCN(C)C)c2ccccc21 (stereo not drawn)
inactive: [7] 100 % of control

Reference: PubChem BioAssay AID328 (DTP/NCI, 2004)
